Test results: patent US4018753A, “Polypeptides with ACTH-like activities” (Shionogi & Co., Ltd., priority 1974, dated 1977)
Square brackets hold non-standard residues; d marks the D form. Ends that are not written are not given here. Peptide text beside a SMILES is read from it. Aib = CC(C)(N)C(=O)O

What was measured:
hypophysectomized rat [1] = experiment: Adrenal-stimulating activity by intravenous administration to hypophysectomized rat; type: in vivo; conditions: relative potency; USP Corticotropin Reference Standard; injected into femoral vein, blood sample 30 minutes after injection, 11-hydroxycorticosteroids
Protocol: (§1) Assays for adrenal-stimulating activity of the present polypeptides were carried out according to the different methods, comparing with that of native corticotropin (ACTH), [Gly^1 ]-ACTH(1-18)-NH2 [Bull.Chem.Soc.Japan 43 196 (1970)], [Aib^1 ]-ACTH(1-18)-NH2 [ibid., 43, 3873 (1970)], [Aib^1,Lys^17,18 ]-ACTH(1-18)-NH2, Cortrosyn^R (N.V.Organon, Netherland) and Cortrosyn-Z (N.V.Organon, Netherland). The adrenal-stimulating activity by the intravenous administration to hypophysectomized rat was determined in such a manner that a peptide preparation was injected into the femoral vein and a blood sample was collected from the abdominal aorta 30 minutes after the injection. The adrenal-stimulating activity by the intramuscular administration to hypophysectomized rat was also determined, where a peptide preparation was injected into the thigh muscle and a blood sample was collected from the abdominal aorta 30 minutes after injection. Throughout the experiment, the USP Corticotropin Reference Standard was used as a standard and the production of 11-hydroxycorticosteroids was determined by the fluorophotometric method of Peterson [J.Biol. Chem. 225 25 (1957)]. For each assay method several determinations were usually performed and the data obtained independently were submitted to the statistical treatment by Sheps and Moore procedure [J.Pharmacol. Extl. Therap. 128, 99 (1960)].

hypophysectomized rat [2] = experiment: Adrenal-stimulating activity by intramuscular administration to hypophysectomized rat; type: in vivo; conditions: relative potency; USP Corticotropin Reference Standard; injected into thigh muscle, blood sample 30 minutes after injection, 11-hydroxycorticosteroids
Protocol: as §1

rats = experiment: Effect on adrenal growth and thymus involution; type: in vivo; design: key: *: The effects on adrenal growth and thymus involution are very weak; conditions: i.m. 20 μg and 100 μg/rat/day for 2 days
Protocol: The effect on adrenal growth and thymus involution was determined in the following manner: peptides were intramuscularly injected into rats at a dose of 20 μg and 100 μg/rat/day respectively for 2 days. The rats were then submitted to autopsy 24 hours after the last injection, and then the adrenal and thymus were weighed respectively.

melanocyte = experiment: In vivo melanocyte-stimulating activity; conditions: relative potency
Protocol: The in vivo melanocyte-stimulating activity was determined according to the method described in Endocrinol. Japonica 19, 383 (1972).

[3] = relative potency, autopsy 24 hours after last injection, adrenal and thymus weighed

Row | Compound | Adrenal-stimulating activity i.v. (hypophysectomized rat [1]) | Adrenal-stimulating activity i.m. (hypophysectomized rat [2]) | effect on adrenal growth and thymus involution a) (rats; [3]) | effect on adrenal growth and thymus involution a) (rats; symbol * in the table) | Melanocyte-stimulating activity b) in vivo (melanocyte)
1 | Native ACTH: native corticotropin (ACTH) (SYSMEHFRWGKPVGKKRRPVKVYPNGAEDESAEAFPLEF; Corticotropin; UniProt P01189 138-176, looked up) | 1.0 | 4.0 | very weak | * | –
2 | CSCC[C@H](NC(=O)[C@H](CO)NC(=O)[C@H](Cc1ccc(O)cc1)NC(=O)C(C)(C)N)C(=O)N[C@@H](CCC(=O)O)C(=O)N[C@@H](Cc1c[nH]cn1)C(=O)N[C@@H](Cc1ccccc1)C(=O)N[C@@H](CCCNC(=N)N)C(=O)N[C@@H](Cc1c[nH]c2ccccc12)C(=O)NCC(=O)N[C@@H](CCCCN)C(=O)N1CCC[C@H]1C(=O)N[C@H](C(=O)NCC(=O)N[C@@H](CCCCN)C(=O)N[C@@H](CCCCN)C(=O)N[C@@H](CCCCN)C(=O)N[C@@H](CCCCN)C(N)=O)C(C)C [[Aib^1,Lys^17,18]ACTH(1-18)NH2, [Aib^1,Lys^17,18]-ACTH(1-18)-NH2] (H-[Aib]YSMEHFRWGKPVGKKKK-NH2) | 9.3 | 9.4 | 0.40 | – | 0.82
3 | GYSMEHFRWGKPVGKKRR-NH2 [[Gly^1]ACTH(1-18)NH2, [Gly^1]-ACTH(1-18)-NH2] | 1.0 | 1.0 | very weak | * | 0.11
4 | CSCC[C@H](NC(=O)[C@H](CO)NC(=O)[C@H](Cc1ccc(O)cc1)NC(=O)C(C)(C)N)C(=O)N[C@@H](CCC(=O)O)C(=O)N[C@@H](Cc1c[nH]cn1)C(=O)N[C@@H](Cc1ccccc1)C(=O)N[C@@H](CCCNC(=N)N)C(=O)N[C@@H](Cc1c[nH]c2ccccc12)C(=O)NCC(=O)N[C@@H](CCCCN)C(=O)N1CCC[C@H]1C(=O)N[C@H](C(=O)NCC(=O)N[C@@H](CCCCN)C(=O)N[C@@H](CCCCN)C(=O)N[C@@H](CCCNC(=N)N)C(=O)N[C@@H](CCCNC(=N)N)C(N)=O)C(C)C [[Aib^1]ACTH(1-18)NH2, [Aib^1]-ACTH(1-18)-NH2] (H-[Aib]YSMEHFRWGKPVGKKRR-NH2) | 4.1 | 9.9 | 0.12 | – | 1.00
